Assay results reported in paper PMC9652372, “Glycolytic flux control by drugging phosphoglycolate phosphatase” (Nature Communications, 2022).
Where “and” joins values, the source holds several entries; their conditions need not be identical. Identical values can stand only once.

What was measured:
[1] = target: T1, murine PGP^C297S (Mus musculus, UniProt Q8CHP8, C297S); assay: IC50 determination, PGP^C297S, PG dephosphorylation; assay type: biochemical
T1 construct: His6 (N, cleaved yes); made in house; host or cells: Escherichia coli BL21 (DE3)
T1 sequence (Q8CHP8 1-321 C297S): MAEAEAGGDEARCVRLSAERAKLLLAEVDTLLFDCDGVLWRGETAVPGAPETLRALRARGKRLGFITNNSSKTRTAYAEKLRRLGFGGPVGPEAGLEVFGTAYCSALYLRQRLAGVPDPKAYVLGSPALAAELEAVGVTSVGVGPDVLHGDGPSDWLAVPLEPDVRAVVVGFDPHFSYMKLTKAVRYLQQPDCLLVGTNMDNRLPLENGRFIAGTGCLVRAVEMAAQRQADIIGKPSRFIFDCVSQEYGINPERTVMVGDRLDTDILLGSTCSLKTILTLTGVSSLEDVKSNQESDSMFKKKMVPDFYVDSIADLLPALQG
Description: . […] Data were analyzed with GraphPad Prism 7.04.
Supplementary Figure 3 (related to Figure 2): Characterization of the homodimeric PGP variant PGPC297S. (a) In vitro phosphatase activity of purified murine PGPC297S in comparison to purified murine PGPWT, using 2- phosphoglycolate (PG) as substrate. (b) Determ ination of […]
CP1. PG dephosphorylation was quantified using malachite green. All data in (a) and (b) are mean values ± S.E.M of n=3 independent experiments. Error bars not shown are hidden by the symbols. (c) PGP self-association in the absence or presence of CP1. Size- exclusion chromatography (SEC) of purified, recombinant murine PGP-WT in comparison to PGP-C297 […]
(1 picture or pasted object on this page, not shown here)

[2] = LC-MS quantification of intracellular CP1; assay type: in vitro ADME, human; details: for Abs. CP1 / Abs. Peak Area, CP1 (neg.): PGP-WT, P5
Description: Cells (~1 million cells/dish) were rinsed in PBS (37 °C), trypsinized, sedimented at 300 × g, 4 °C for 4 min, washed once in PBS (4 °C), and sedimented again at 300 × g, 4 °C for 4 min. Cell pellets were snap-frozen in liquid nitrogen.
Water-soluble metabolites were extracted with 50 µl ice-cold MeOH/H2O (80/20, v/v) containing 0.01 μM lamivudine. After centrifugation of the resulting homogenates, supernatants were transferred to a RP18 SPE (50 mg/1 mL tubes; Phenomenex) that had been activated with 0.5 mL CH3CN and conditioned with 0.5 mL of MeOH/H2O (80/20, v/v). The eluate of the RP18 SPE-column was evaporated in a SpeedVac (Savant, Thermo Fisher Scientific). Dry sample extracts were redissolved in 75 μL 5 mM NH4OAc in CH3CN/H2O (50/50, v/v). Twenty µL of supernatant were transferred to LC-vials. Metabolites were analyzed by LC-MS using the following settings: 3 μL of each sample was applied to an XBridge Premier BEH Amide (2.5 μm particles, 100 × 2.1 mm) UPLC-column (Waters). Metabolites were separated with Solvent A, consisting of 5 mM NH4OAc in CH3CN/H2O (40/60, v/v) and solvent B consisting of 5 mM NH4OAc in CH3CN/H2O (95/5, v/v) at a flow rate of 200 µL/min at 45 °C by LC using a DIONEX Ultimate 3000 UHPLC system (Thermo Fisher Scientific). A linear gradient starting after 2 min with 100% solvent B decreasing to 10% solvent B within 23 min, followed by 16 min 10% solvent B and a linear increase to 100% solvent B in 2 min was applied. Recalibration of the column was achieved by a 7 min prerun with 100% solvent B before each injection. […] All MS-analyses were performed on a high-resolution Q Exactive mass spectrometer equipped with a HESI probe (Thermo Fisher Scientific) in alternating positive- and negative full MS mode with a scan range of 69.0–1000 m/z at 70 K resolution and the following ESI source parameters: Sheath gas: 30, auxiliary gas: 1, sweep gas: 0, aux gas heater temperature: 120 °C, spray voltage: 3 kV, capillary temperature: 320 °C, S-lens RF level: 50. XIC generation and signal quantitation was performed using TraceFinder v3.3 (Thermo Fisher Scientific) integrating peaks which corresponded to the calculated monoisotopic metabolite masses (MIM + /− H + ± 3 mMU). Analyses of PGP-WT and PGP-KO cells were performed in n = 5 biologically independent experiments.

Structure (SMILES): O=C(Nc1ccccc1C(=O)O)c1ccc(Oc2ccc(C(=O)Nc3ccccc3C(=O)O)cc2)cc1 [CP1]
- IC50 ([1]; PGP^C297S, substrate PG): ~250 nM
- remaining activity at […] ([1]; read-out: PGP-C297S activity in presence of CP1 relative to DMSO control, CP1 log[M] -5.60206): 6.31%
- remaining activity at 1.25 µM ([1]; read-out: PGP-C297S activity in presence of CP1 relative to DMSO control, CP1 log[M] -5.90309): 12.6%
- remaining activity at 0.3125 µM ([1]; read-out: PGP-C297S activity in presence of CP1 relative to DMSO control, CP1 log[M] -6.50515): 44.1%
- remaining activity at 0.15625 µM ([1]; read-out: PGP-C297S activity in presence of CP1 relative to DMSO control, CP1 log[M] -6.80618): 56.8%
- remaining activity at 0.078125 µM ([1]; read-out: PGP-C297S activity in presence of CP1 relative to DMSO control, CP1 log[M] -7.10721): 72.1%
- remaining activity at 0.03906 µM ([1]; read-out: PGP-C297S activity in presence of CP1 relative to DMSO control, CP1 log[M] -7.40824): 75.7%
- remaining activity at 0.01953 µM ([1]; read-out: PGP-C297S activity in presence of CP1 relative to DMSO control, CP1 log[M] -7.70927): 90.1%
- less CP1 detected than expected ([2]; 100 µM CP1): 39%
- Abs. CP1 ([2]; 3h 33 uM CP1): 0.136 pmol and 0.115 pmol and 0.127 pmol
- Abs. Peak Area, CP1 (neg.) ([2]; 3h 33 uM CP1): 1166078 and 1127449 and 1204353
- Abs. CP1 ([2]; 7h 100 uM CP1): 0.229 pmol and 0.231 pmol and 0.241 pmol
- Abs. Peak Area, CP1 (neg.) ([2]; 7h 100 uM CP1): 2322474 and 2574644 and 2821728
